Assay: xn = mol fraction of the nth substance listed
Conditions: 100 kPa, Liquid; for speed of sound: Frequency=5 MHz, Pulse-echo method; for mass density: Vibrating tube method

OCCOCCOCCO [triethylene glycol] + O
Conditions | mass density [kg/m3] | speed of sound [m/s]
288.15 K, x1 = 0.0107 | 1011.72 | –
288.15 K, x1 = 0.02047 | 1022.17 | –
288.15 K, x1 = 0.03972 | 1040.07 | –
288.15 K, x1 = 0.04979 | 1048.13 | –
288.15 K, x1 = 0.06996 | 1061.93 | –
288.15 K, x1 = 0.09424 | 1075.05 | –
288.15 K, x1 = 0.1045 | – | 1734.9
288.15 K, x1 = 0.1091 | – | 1738.4
288.15 K, x1 = 0.1208 | – | 1745.7
288.15 K, x1 = 0.1237 | – | 1747.2
288.15 K, x1 = 0.1281 | – | 1749.1
288.15 K, x1 = 0.1302 | – | 1750
288.15 K, x1 = 0.133 | – | 1751
288.15 K, x1 = 0.1394 | – | 1753
288.15 K, x1 = 0.1441 | – | 1754.2
288.15 K, x1 = 0.1474 | – | 1754.8
288.15 K, x1 = 0.1481 | 1094.39 | –
288.15 K, x1 = 0.1578 | – | 1756.3
288.15 K, x1 = 0.1678 | – | 1756.8
288.15 K, x1 = 0.1774 | – | 1756.7
288.15 K, x1 = 0.1904 | – | 1755.7
288.15 K, x1 = 0.2006 | 1105.14 | –
288.15 K, x1 = 0.2055 | – | 1753.5
288.15 K, x1 = 0.2329 | – | 1748
288.15 K, x1 = 0.2502 | 1111.33 | –
288.15 K, x1 = 0.2559 | – | 1742.5
288.15 K, x1 = 0.2967 | – | 1731.9
288.15 K, x1 = 0.2988 | 1115.27 | –
288.15 K, x1 = 0.3235 | – | 1725.1
288.15 K, x1 = 0.3492 | 1118.09 | –
288.15 K, x1 = 0.3699 | – | 1714
288.15 K, x1 = 0.3925 | 1119.86 | –
288.15 K, x1 = 0.4089 | – | 1705.2
288.15 K, x1 = 0.4502 | 1121.62 | –
288.15 K, x1 = 0.4877 | 1122.51 | –
288.15 K, x1 = 0.5004 | 1122.77 | –
288.15 K, x1 = 0.5029 | – | 1686.5
288.15 K, x1 = 0.5739 | 1124.05 | –
288.15 K, x1 = 0.58 | 1124.13 | –
288.15 K, x1 = 0.6337 | – | 1667
288.15 K, x1 = 0.6465 | 1124.97 | –
288.15 K, x1 = 0.651 | 1125.02 | –
288.15 K, x1 = 0.7008 | 1125.51 | –
288.15 K, x1 = 0.745 | – | 1657.9
288.15 K, x1 = 0.7471 | 1125.9 | –
288.15 K, x1 = 0.7677 | 1126.06 | –
288.15 K, x1 = 0.82 | 1126.42 | –
288.15 K, x1 = 0.8623 | 1126.68 | –
288.15 K, x1 = 0.8792 | 1126.78 | –
288.15 K, x1 = 0.8795 | – | 1649.6
288.15 K, x1 = 0.8975 | 1126.88 | –
288.15 K, x1 = 0.9203 | 1127.01 | –
288.15 K, x1 = 0.9514 | 1127.17 | –
288.15 K, x1 = 0.9612 | – | 1645.9
288.15 K, x1 = 0.9692 | 1127.27 | –
288.15 K, x1 = 1 | 1127.43 | 1643.9
293.15 K, x1 = 0.000681 | – | 1485.6
293.15 K, x1 = 0.002463 | – | 1494
293.15 K, x1 = 0.005001 | – | 1505.7
293.15 K, x1 = 0.007787 | – | 1518
293.15 K, x1 = 0.01463 | – | 1546.1
293.15 K, x1 = 0.02045 | – | 1567.9
293.15 K, x1 = 0.0276 | – | 1592.1
293.15 K, x1 = 0.03276 | – | 1608
293.15 K, x1 = 0.0418 | – | 1632.7
293.15 K, x1 = 0.04898 | – | 1649.9
293.15 K, x1 = 0.05561 | – | 1664
293.15 K, x1 = 0.06315 | – | 1678
293.15 K, x1 = 0.0678 | – | 1685.8
293.15 K, x1 = 0.0736 | – | 1694.6
293.15 K, x1 = 0.08161 | – | 1705.1
293.15 K, x1 = 0.08886 | – | 1713.2
293.15 K, x1 = 0.09701 | – | 1721
293.15 K, x1 = 0.1043 | – | 1726.7
293.15 K, x1 = 0.1091 | – | 1730
293.15 K, x1 = 0.1142 | – | 1733
293.15 K, x1 = 0.12 | – | 1735.9
293.15 K, x1 = 0.1325 | – | 1740.6
293.15 K, x1 = 0.1374 | – | 1741.9
293.15 K, x1 = 0.1445 | – | 1743.3
